Mutagenic call data for 9 compounds are collected here from PubChem BioAssay AID1259407 (Chemical Carcinogenesis Research Information System (CCRIS), 2018).

In this series the test system is CCRIS mutagenicity, Ames/micronucleus/aberration tests. The series can be described thus: CCRIS mutagenicity studies.
[1] abbreviates: Test System: AMES SALMONELLA TYPHIMURIUM, Strain/Indicator: TA97, Metabolic Activation: NONE, Method: STANDARD PLATE.
The mark [2] stands for this setting: Test System: AMES SALMONELLA TYPHIMURIUM, Strain/Indicator: TA98, Metabolic Activation: NONE, Method: STANDARD PLATE.
Where [3] appears, read: Test System: AMES SALMONELLA TYPHIMURIUM, Strain/Indicator: TA100, Metabolic Activation: NONE, Method: STANDARD PLATE.
[4] abbreviates: Test System: AMES SALMONELLA TYPHIMURIUM, Strain/Indicator: TA98, Metabolic Activation: NONE, Method: PREINCUBATION
Where [5] appears, read: Test System: AMES SALMONELLA TYPHIMURIUM, Strain/Indicator: TA100, Metabolic Activation: NONE, Method: PREINCUBATION

Active and inactive are the calls of the source. How the calls were made is not given here.

`COC1=CC(=O)c2nc(C)c3c([nH]c4ccccc43)c2C1=O`: the mutagenic call reads like this: under setting [1], “active; positive”; (Test System: AMES SALMONELLA TYPHIMURIUM, Strain/Indicator: TA97, Metabolic Activation: RAT, LIVER, S-9, AROCLOR 1254, Method: STANDARD PLATE) “active; positive”; under setting [2], “inactive; negative”; (Test System: AMES SALMONELLA TYPHIMURIUM, Strain/Indicator: TA98, Metabolic Activation: RAT, LIVER, S-9, AROCLOR 1254, Method: STANDARD PLATE) “active; positive”; under setting [3], “active; positive”; (Test System: AMES SALMONELLA TYPHIMURIUM, Strain/Indicator: TA100, Metabolic Activation: RAT, LIVER, S-9, AROCLOR 1254, Method: STANDARD PLATE) “inactive; negative”. The mutagenic call (Test System: AMES SALMONELLA TYPHIMURIUM, Strain/Indicator: TA102, Metabolic Activation: NONE, Method: STANDARD PLATE) is “inactive; negative” and the mutagenic call (Test System: AMES SALMONELLA TYPHIMURIUM, Strain/Indicator: TA102, Metabolic Activation: RAT, LIVER, S-9, AROCLOR 1254, Method: STANDARD PLATE) was “inactive; negative”.
As for `O=C(NCCCl)Sc1ncnc2nc[nH]c12`, the mutagenic call reads like this: under setting [1], “inactive; negative”; (Test System: AMES SALMONELLA TYPHIMURIUM, Strain/Indicator: TA97, Metabolic Activation: RAT, LIVER, S-9, PHENOBARBITAL AND ALPHA-NAPHTHOFLAVONE, Method: STANDARD PLATE) “inactive; negative”; under setting [2], “inactive; negative”; (Test System: AMES SALMONELLA TYPHIMURIUM, Strain/Indicator: TA98, Metabolic Activation: RAT, LIVER, S-9, PHENOBARBITAL AND ALPHA-NAPHTHOFLAVONE, Method: STANDARD PLATE) “inactive; negative”; under setting [3], “inactive; negative”; (Test System: AMES SALMONELLA TYPHIMURIUM, Strain/Indicator: TA100, Metabolic Activation: RAT, LIVER, S-9, PHENOBARBITAL AND ALPHA-NAPHTHOFLAVONE, Method: STANDARD PLATE) “inactive; negative”. Moreover, the mutagenic call is, setting by setting: (Test System: AMES SALMONELLA TYPHIMURIUM, Strain/Indicator: TA1535, Metabolic Activation: NONE, Method: STANDARD PLATE) “active; positive”; (Test System: AMES SALMONELLA TYPHIMURIUM, Strain/Indicator: TA1535, Metabolic Activation: RAT, LIVER, S-9, PHENOBARBITAL AND ALPHA-NAPHTHOFLAVONE, Method: STANDARD PLATE) “active; positive”.
In the case of `Clc1cccc(Cl)c1Cl`, the mutagenic call reads like this: (Test System: AMES SALMONELLA TYPHIMURIUM, Strain/Indicator: TA98, Metabolic Activation: HAMSTER, LIVER, S-9, AROCLOR 1254, Method: PREINCUBATION) “inactive; negative”; under setting [4], “inactive; negative”; (Test System: AMES SALMONELLA TYPHIMURIUM, Strain/Indicator: TA98, Metabolic Activation: RAT, LIVER, S-9, AROCLOR 1254, Method: PREINCUBATION) “inactive; negative”; (Test System: AMES SALMONELLA TYPHIMURIUM, Strain/Indicator: TA100, Metabolic Activation: HAMSTER, LIVER, S-9, AROCLOR 1254, Method: PREINCUBATION) “inactive; negative”; under setting [5], “inactive; negative”; (Test System: AMES SALMONELLA TYPHIMURIUM, Strain/Indicator: TA100, Metabolic Activation: RAT, LIVER, S-9, AROCLOR 1254, Method: PREINCUBATION) “inactive; negative”. The mutagenic call (Test System: AMES SALMONELLA TYPHIMURIUM, Strain/Indicator: TA1535, Metabolic Activation: HAMSTER, LIVER, S-9, AROCLOR 1254, Method: PREINCUBATION) was “inactive; negative”; the mutagenic call (Test System: AMES SALMONELLA TYPHIMURIUM, Strain/Indicator: TA1535, Metabolic Activation: NONE, Method: PREINCUBATION) is “inactive; negative”; the mutagenic call (Test System: AMES SALMONELLA TYPHIMURIUM, Strain/Indicator: TA1535, Metabolic Activation: RAT, LIVER, S-9, AROCLOR 1254, Method: PREINCUBATION) is “inactive; negative”; the mutagenic call (Test System: AMES SALMONELLA TYPHIMURIUM, Strain/Indicator: TA1537, Metabolic Activation: HAMSTER, LIVER, S-9, AROCLOR 1254, Method: PREINCUBATION) was “inactive; negative”; the mutagenic call (Test System: AMES SALMONELLA TYPHIMURIUM, Strain/Indicator: TA1537, Metabolic Activation: NONE, Method: PREINCUBATION) was “inactive; negative”; the mutagenic call (Test System: AMES SALMONELLA TYPHIMURIUM, Strain/Indicator: TA1537, Metabolic Activation: RAT, LIVER, S-9, AROCLOR 1254, Method: PREINCUBATION) is “inactive; negative”.
On to `[Cl][Ga]([Cl])[Cl]`, for which the mutagenic call is “inactive; negative” under setting [4]; “inactive; negative” (Test System: AMES SALMONELLA TYPHIMURIUM, Strain/Indicator: TA98, Metabolic Activation: RAT, LIVER, S-9 (10%), Method: PREINCUBATION); “inactive; negative” under setting [5]; “inactive; negative” (Test System: AMES SALMONELLA TYPHIMURIUM, Strain/Indicator: TA100, Metabolic Activation: RAT, LIVER, S-9 (10%), Method: PREINCUBATION).
Turning to `Cc1ccc(N=[N+]([O-])c2ccc(C)c(N)c2)cc1N`, the mutagenic call is “inactive; negative” under setting [4]; “inactive; negative” (Test System: AMES SALMONELLA TYPHIMURIUM, Strain/Indicator: TA98, Metabolic Activation: NONE, Method: SUSPENSION/PLATE); “active; positive” (Test System: AMES SALMONELLA TYPHIMURIUM, Strain/Indicator: TA98, Metabolic Activation: RAT, LIVER, S-9, PCB, Method: PREINCUBATION); “active; positive” (Test System: AMES SALMONELLA TYPHIMURIUM, Strain/Indicator: TA98, Metabolic Activation: RAT, LIVER, S-9, PHENOBARBITAL AND 5,6-BENZOFLAVONE, Method: SUSPENSION/PLATE); “inactive; negative” (Test System: AMES SALMONELLA TYPHIMURIUM, Strain/Indicator: TA100, Metabolic Activation: NONE, Method: SUSPENSION/PLATE); “inactive; negative” (Test System: AMES SALMONELLA TYPHIMURIUM, Strain/Indicator: TA100, Metabolic Activation: RAT, LIVER, S-9, PHENOBARBITAL AND 5,6-BENZOFLAVONE, Method: SUSPENSION/PLATE).
For the compound `COP(=O)(OC)O/C(=C\Cl)c1cc(Cl)c(Cl)cc1Cl`, the mutagenic call is “inactive; negative” (Test System: AMES SALMONELLA TYPHIMURIUM, Strain/Indicator: TA98, Metabolic Activation: NONE); “inactive; negative” (Test System: AMES SALMONELLA TYPHIMURIUM, Strain/Indicator: TA98, Metabolic Activation: RAT, LIVER, S-9, AROCLOR 1254); “inactive; negative” (Test System: AMES SALMONELLA TYPHIMURIUM, Strain/Indicator: TA100, Metabolic Activation: NONE); “inactive; negative” (Test System: AMES SALMONELLA TYPHIMURIUM, Strain/Indicator: TA100, Metabolic Activation: RAT, LIVER, S-9, AROCLOR 1254); “inactive; negative” (Test System: AMES SALMONELLA TYPHIMURIUM, Strain/Indicator: TA102, Metabolic Activation: NONE); “inactive; negative” (Test System: AMES SALMONELLA TYPHIMURIUM, Strain/Indicator: TA102, Metabolic Activation: RAT, LIVER, S-9, AROCLOR 1254). For the same compound, the mutagenic call is “inactive; negative” (Test System: AMES SALMONELLA TYPHIMURIUM, Strain/Indicator: TA1535, Metabolic Activation: NONE); “inactive; negative” (Test System: AMES SALMONELLA TYPHIMURIUM, Strain/Indicator: TA1535, Metabolic Activation: RAT, LIVER, S-9, AROCLOR 1254); “inactive; negative” (Test System: AMES SALMONELLA TYPHIMURIUM, Strain/Indicator: TA1537, Metabolic Activation: NONE); “inactive; negative” (Test System: AMES SALMONELLA TYPHIMURIUM, Strain/Indicator: TA1537, Metabolic Activation: RAT, LIVER, S-9, AROCLOR 1254).
Take `O=C1C=C(N2CC2)C(=O)C(N2CC2)=C1N1CC1`: the mutagenic call (Test System: UDS RODENT PRIMARY, Strain/Indicator: THY INCORP (NON-S-PHASE), Metabolic Activation: NONE, Method: LIQUID SCINTILLATION COUNTING) is “active; positive”.
In the case of `Cc1cc2ccccc2cc1[N+](=O)[O-]`, the mutagenic call under setting [4] is “inactive; negative”.
In the case of `C=CC(O)c1ccc2c(c1)OCO2` (stereo unspecified), the mutagenic call (Test System: UDS HUMAN FIBROBLASTS, Strain/Indicator: THY INCORP (NON-S-PHASE), Metabolic Activation: NONE, Method: AUTORADIOGRAPHY) was “active; positive”.
